US20230172232A1, “COMPOSITIONS AND METHODS USING AN AMINO ACID BLEND FOR PROVIDING A HEALTH BENEFIT IN AN ANIMAL” (Société des Produits Nestlé S.A., priority 2021, published 2023)

Key:
[1] = test system: Complex I (CI) respiration of isolated mitochondria from skeletal muscle; assay: Acute oxidative stress (menadione) and mitochondrial high-resolution respirometry; type: in vivo; settings: adult zebrafish, 3 μM menadione 2 h, then glycine 50, 200, 450 μM or glucose 500 μM and 5 mM in water 2 h at 28° C.; FIG. 3
Method: Adult AB zebrafish of 4-6 months old were exposed in water to acute oxidative stress with 3 μM Menadione (Sigma-Aldrich) incubation for 2 h at 28° C. Following the stress, fish were divided into controls and treatment groups. Controls of the oxidative stress were then incubated in clean water for 2 h at 28° C. […] After BCA quantification of protein concentration, 150 μg of crude extract were used for high-resolution respirometry quantification. The Oxygraph-2k (O2k, OROBOROS Instruments) was used for measurements of respiration. Up to three O2k instruments ([…]) were used in parallel. […] Respiration of isolated mitochondria was determined using substrate-uncoupler-inhibitor titration (SUIT) protocols (Pesta and […], Methods Mol Biol. 2012; 810:25-58) with modifications. Pyruvate, glutammate and malate (5 mM, 10 mM, 2 mM, respectively) were used as substrate to induce Complex I (CI) respiration in presence of ADP (1 mM). […] CI respiration was calculated as the difference between total respiration (CI+CII) and the addition of CI inhibitor rotenone (0.5 μM); CII respiration was calculated as the difference between inhibited CI respiration and the addition of CII inhibitor malonic acid (5 mM). Total respiration (CI+CII, Tot resp) was assessed as the difference of the respiration in presence of all substrates and the total inhibition of CI and CII.

[2] = test system: HK2 cells; assay: Luminescent Cell Viability assay by measuring ATP (CellTiter-Glo 2.0); type: cell-based; settings: for Cell Survival (Average Lum): Table 5, additional study, 48 h in medium, Control 763 951, W/O AA 565 539
Method: An amino acid blend study was performed using HK2 cell response to evaluate kidney health benefit. The amino acid blend composed glycine, methionine, cysteine, and glutamine. Protocol for Luminescent Cell Viability assay by measuring ATP, a key indicator of cell health is detailed hereafter.
For each experiment, a frozen stock of HK2 cells banked with less than passage 4 was thawed and expanded in normal growing medium in a humidified incubator at 37° C. in 5% CO2. HK2 cells were cultured for a maximum of 3 passages prior to cellular assays and were passaged upon reaching 70-80% confluence, approximately every 3 days.
2500 HK2 cells were seeded in 384 well plate in normal growing medium. 24 h after, cells were starved during 2 hours in HBSS buffer to remove all amino acids traces and then a new medium with specific formulation is added for 48 h incubation: Control medium with all amino acids, Medium without amino acids, Medium with 4 amino acids blend, Medium with all amino acids except 4 amino acids of interest, Medium with glycine only, Medium with methionine only, Medium with cysteine only, Medium with glutamine only, and Medium with cysteine+glutamine only.
Treatment is stopped by adding a CellTiter-Glo® 2.0 assay reagent from Promega to lyse the cells, after 20 min of incubation at room temperature with under slight shaking luminescence level was measured using a luminescent plate reader as an indicator of cell viability. Presence of ATP indicates the presence of metabolically active cells.

## NCC(=O)O [glycine]
[1]
  Complex I dependent respiration (O2 consumption of isolated mitochondria): restores Complex I respiratory levels
[2]
  Cell Survival (Average Lum): 620 224 Lum

## NC(=O)CC[C@H](N)C(=O)O [glutamine]
[2]
  Cell Survival (Average Lum): 740 156 Lum
[2]; Table 5 study
  protective effect on cell survival (in words): performed similarly to the blend

## CC1=CC(=O)c2ccccc2C1=O [menadione, Menadione, reference compound]
[1]
  Complex I dependent respiration (O2 consumption of isolated mitochondria): decreasing Complex I dependent respiration

## N[C@@H](CS)C(=O)O [cysteine]
[2]
  Cell Survival (Average Lum): 388 041 Lum

## CSCC[C@H](N)C(=O)O [methionine]
[2]
  Cell Survival (Average Lum): 611 869 Lum
